Reference: patent US8497272B2, “Compounds for treating proliferative disorders” (Synta Pharmaceuticals Corp., priority 2006, dated 2013)

System: inducible human Hsp70
Assay: Hsp70 RNA induction by quantitative PCR analysis in Ramos B cells
Type: cell-based
Conditions: 500 nM compound, 6 hours, Hsp70 RNA relative to gapdh; for % induction relative to Compound X: Compound X set to 100%; for fold induction at 0.5 µM: Homo sapiens, read-out: fold induction over DMSO
Experimental: The ability of the compounds of the invention to induce Hsp70 RNA induction by quantitative PCR analysis was examined. Ramos B cells were treated with 500 nM each compound for 6 hours and the RNA was isolated from the cells. Quantitative PCR was performed as described below:
Details for Quantitative PCR are as follows:
500 ng of RNA from each sample was used for cDNA synthesis using iScript cDNA Synthesis Kit (Biorad, Cat#170-8891). 1 ul of cDNA mixture was used with the iQ SYBR Green Supermix (Biorad, Cat#170-8882) to perform quantitative PCR in an iCycler machine (Biorad) using standard protocols. QPCR for each sample/time point was performed in duplicate. The following primers for inducible human Hsp70 and gapdh were used: […]
Ct values were obtained from the iCycler program and used in an equation (2^−ΔΔCT) for determining the amount of target relative to gapdh expression. This compares the relative expression of Hsp70 to the corresponding levels of gapdh in each sample. Duplicate wells were averaged. The amount of N-Malonyl-bis(N′-methyl-N′ thiobenzoylhydrazide) (Compound X) induction of Hsp70 was set to 100% and the percent of induction of Hsp70 by the compounds of the invention was determined relative to 100%.

| Compound | % induction relative to Compound X [%] | fold induction at 0.5 µM |
| --- | --- | --- |
| CN(NC(=O)CC(=O)NN(C)C(=S)Nc1ccccc1)C(=S)Nc1ccccc1 [Compound 67] | 0.09 | 0.22 |
| CN(NC(=O)CC(=O)NN(C)C(=S)NC1CC1)C(=S)NC1CC1 [Compound 69] | 0.12 | 0.3 |
| COC(=S)N(C)NC(=O)CC(=O)NN(C)C(=S)OC [Compound 70] | 0.57 | 1.41 |
| CN(NC(=O)CC(=O)NN(C)c1nccs1)c1nccs1 [Compound 71] | 0.33 | 0.87 |
| CN(NC(=O)c1cc(=O)cc(C(=O)NN(C)C(=S)c2ccccc2)o1)C(=S)c1ccccc1 [Compound 74, N′2,N′6-dimethyl-4-oxo-N′2,N′6-di(phenylcarbonothioyl)-4H-pyran-2,6-dicarbohydrazide] | 0.22 | 0.59 |
